The subject of the experiment is Min6 cell. Briefly: Insulin secretion response of beta cell line to formula I compounds (insulin ELISA). The class given is cell-based. The settings on record: rank according to % increase versus control at most effective dose. On the procedure: The secretory responses of beta cell lines to glucose were tested as described in Merglen et al. Endocrinology, (2004) 145(2):667-78.
Briefly, after incubation with compounds from formula I or control vehicle, cells were maintained for 2 hours in glucose-free culture medium. The cells were then washed twice and preincubated for 30 minutes at 37° C. in glucose-free Krebs-Ringer bicarbonate HEPES buffer (KRBH: 135 mM NaCl, 3.6 mM KCl, 5 mM NaHCO3, 0.5 mM NaH2PO4, 0.5 mM MgCl2, 1.5 mM CaCl2, and 10 mM HEPES, pH 7.4). BSA (0.1%) was added as an insulin carrier. Cells were subsequently washed with glucose-free KRBH and then incubated for 30 minutes at 37° C. in KRBH containing different concentrations of glucose. The reaction was stopped by placing the plates on ice; supernatants were collected to determine insulin secretion and cells were used for intracellular insulin content following acid-ethanol extraction. Insulin was measured by ELISA (Linco) according to the manufacturer's instructions.
(In an ELISA, binding on a coated surface is turned into a signal by an enzyme label.)

Consider “5-[3-(allyloxy)-2-hydroxypropyl]-9-ethyl-6,7,9,10-tetrahydro[1,3]dioxolo[4,5-i][1,5]benzodiazocin-8(5H)-one [Compound 164]”, for which the “Insulin secretion (Min6 cell) Range 1 to 5” value (from here on “Insulin secretion”) is recorded as 1 (1: 90-110% of control).
Regarding “5-benzyl-1-(isoxazole-5-carbonyl)-2,3,5,6-tetrahydrobenzo[b][1,5]diazocin-4(1H)-one [Compound 157]”, the “Insulin secretion” value is given as 1 (1: 90-110% of control).
Regarding “9-ethyl-5-(2-hydroxy-3-phenylpropyl)-6,7,9,10-tetrahydro[1,3]dioxolo[4,5-i][1,5]benzodiazocin-8(5H)-one [Compound 165]”, the “Insulin secretion” value is listed as 1 (1: 90-110% of control).
Turning to `COc1ccc2c(c1)CN(C1CC1)C(=O)CCN2` [Compound 1, 5-cyclopropyl-8-methoxy-2,3,5,6-tetrahydrobenzo[b][1,5]diazocin-4(1H)-one], the “Insulin secretion” value is recorded as 2 (2: 110-120% of control).
As for `COc1ccc2c(c1)CN(C1CC1)C(=O)CCN2CC(O)COc1ccccc1` (stereo not drawn) [Compound 2, 5-cyclopropyl-1-(2-hydroxy-3-phenoxypropyl)-8-methoxy-2,3,5,6-tetrahydrobenzo[b][1,5]diazocin-4(1H)-one], the figure is 3 (3: 120-140% of control).
As for `COc1ccc2c(c1)CN(C1CC1)C(=O)CCN2CCc1ccc(Cl)cc1` [Compound 3, 1-(4-chlorophenethyl)-5-cyclopropyl-8-methoxy-2,3,5,6-tetrahydrobenzo[b][1,5]diazocin-4(1H)-one], the “Insulin secretion” value is 1 (1: 90-110% of control).
Consider `COc1ccc2c(c1)CN(C1CC1)C(=O)CCN2C(=O)c1cc(C)on1` [Compound 4, 5-cyclopropyl-8-methoxy-1-(5-methylisoxazole-3-carbonyl)-2,3,5,6-tetrahydrobenzo[b][1,5]diazocin-4(1H)-one], for which the “Insulin secretion” value was 2 (2: 110-120% of control).
Regarding `COc1ccc2c(c1)CN(C1CC1)C(=O)CCN2CC(=O)c1ccc(F)cc1` [Compound 5, 5-cyclopropyl-1-(2-(4-fluorophenyl)-2-oxoethyl)-8-methoxy-2,3,5,6-tetrahydrobenzo[b][1,5]diazocin-4(1H)-one], the “Insulin secretion” value is 3 (3: 120-140% of control).
As for `COc1ccc2c(c1)CN(C1CC1)C(=O)CCN2CC(O)c1ccc(F)cc1` (stereo not drawn) [Compound 6, 5-cyclopropyl-1-(2-(4-fluorophenyl)-2-hydroxyethyl)-8-methoxy-2,3,5,6-tetrahydrobenzo[b][1,5]diazocin-4(1H)-one], the “Insulin secretion” value is listed as 3 (3: 120-140% of control).
Take `O=C1CCNc2ccc(Br)cc2CN1C1CC1` [Compound 7, 8-bromo-5-cyclopropyl-2,3,5,6-tetrahydrobenzo[b][1,5]diazocin-4(1H)-one]: the “Insulin secretion” value is 1 (1: 90-110% of control).
Consider `O=C1CCNc2ccc(F)cc2CN1C1CC1` [Compound 8, 5-cyclopropyl-8-fluoro-2,3,5,6-tetrahydrobenzo[b][1,5]diazocin-4(1H)-one], for which the “Insulin secretion” value is recorded as 3 (3: 120-140% of control).
On to `O=C1CCNc2ncccc2CN1C1CC1` [Compound 9, 5-cyclopropyl-2,3,5,6-tetrahydropyrido[2,3-b][1,5]diazocin-4(1H)-one], for which the “Insulin secretion” value was 2 (2: 110-120% of control).
For the molecule `O=C1CCNc2ccc(F)cc2CN1` [Compound 10, 8-fluoro-2,3,5,6-tetrahydrobenzo[b][1,5]diazocin-4(1H)-one], the “Insulin secretion” value is on record as 4 (4: 140-170% of control).
In the case of `COc1ccc2c(c1)CN(C1CC1)C(=O)CCN2CC(=O)c1ccccc1` [Compound 11, 5-cyclopropyl-8-methoxy-1-(2-oxo-2-phenylethyl)-2,3,5,6-tetrahydrobenzo[b][1,5]diazocin-4(1H)-one], the “Insulin secretion” value is listed as 1 (1: 90-110% of control).
For the molecule `COc1ccc2c(c1)CN(C1CC1)C(=O)CCN2CC(=O)c1cc(OC)ccc1OC` [Compound 12, 5-cyclopropyl-1-(2-(2,5-dimethoxyphenyl)-2-oxoethyl)-8-methoxy-2,3,5,6-tetrahydrobenzo[b][1,5]diazocin-4(1H)-one], the “Insulin secretion” value is 1 (1: 90-110% of control).
For `COc1ccc2c(c1)CN(C1CC1)C(=O)CCN2CC(=O)c1ccccc1OC` [Compound 13, 5-cyclopropyl-8-methoxy-1-(2-(2-methoxyphenyl)-2-oxoethyl)-2,3,5,6-tetrahydrobenzo[b][1,5]diazocin-4(1H)-one], the “Insulin secretion” value is 1 (1: 90-110% of control).
As for `COc1ccc2c(c1)CN(C1CC1)C(=O)CCN2CC(=O)c1ccc(Cl)cc1` [Compound 14, 1-(2-(4-chlorophenyl)-2-oxoethyl)-5-cyclopropyl-8-methoxy-2,3,5,6-tetrahydrobenzo[b][1,5]diazocin-4(1H)-one], the “Insulin secretion” value is listed as 3 (3: 120-140% of control).
Regarding `COc1ccc2c(c1)CN(C1CC1)C(=O)CCN2CC(=O)c1ccc2c(c1)OCCO2` [Compound 15, 5-cyclopropyl-1-(2-(2,3-dihydrobenzo[b][1,4]dioxin-6-yl)-2-oxoethyl)-8-methoxy-2,3,5,6-tetrahydrobenzo[b][1,5]diazocin-4(1H)-one], the “Insulin secretion” value is listed as 3 (3: 120-140% of control).
On to `COc1ccc2c(c1)CN(C1CC1)C(=O)CCN2CC(=O)c1ccc(N2CCCC2)cc1` [Compound 16, 5-cyclopropyl-8-methoxy-1-(2-oxo-2-(4-(pyrrolidin-1-yl)phenyl)ethyl)-2,3,5,6-tetrahydrobenzo[b][1,5]diazocin-4(1H)-one], for which the “Insulin secretion” value was 4 (4: 140-170% of control).
For the molecule `COc1ccc2c(c1)CN(C1CC1)C(=O)CCN2CC(O)c1ccccc1` (stereo not drawn) [Compound 17, 5-cyclopropyl-1-(2-hydroxy-2-phenylethyl)-8-methoxy-2,3,5,6-tetrahydrobenzo[b][1,5]diazocin-4(1H)-one], the “Insulin secretion” value is on record as 2 (2: 110-120% of control).
Take `COc1ccc2c(c1)CN(C1CC1)C(=O)CCN2C[C@@H](O)COCc1ccccc1` [Compound 18, (R)-1-(3-(benzyloxy)-2-hydroxypropyl)-5-cyclopropyl-8-methoxy-2,3,5,6-tetrahydrobenzo[b][1,5]diazocin-4(1H)-one]: the “Insulin secretion” value was 2 (2: 110-120% of control).
`O=C1CCN(C[C@@H](O)COCc2ccccc2)c2ccc(F)cc2CN1C1CC1` [Compound 19, (R)-1-(3-(benzyloxy)-2-hydroxypropyl)-5-cyclopropyl-8-fluoro-2,3,5,6-tetrahydrobenzo[b][1,5]diazocin-4(1H)-one]: the “Insulin secretion” value was 1 (1: 90-110% of control).
For `COc1cccc(C(=O)CN2CCC(=O)N(C3CC3)Cc3cc(OC)ccc32)c1` [Compound 20, 5-cyclopropyl-8-methoxy-1-(2-(3-methoxyphenyl)-2-oxoethyl)-2,3,5,6-tetrahydrobenzo[b][1,5]diazocin-4(1H)-one], the “Insulin secretion” value is on record as 1 (1: 90-110% of control).
As to `COc1ccc(C(=O)CN2CCC(=O)N(C3CC3)Cc3cc(OC)ccc32)cc1` [Compound 21, 5-cyclopropyl-8-methoxy-1-(2-(4-methoxyphenyl)-2-oxoethyl)-2,3,5,6-tetrahydrobenzo[b][1,5]diazocin-4(1H)-one], the “Insulin secretion” value was 2 (2: 110-120% of control).

(Values after patent US8765728B2, “[1,5]-diazocin derivatives” (MelliTech, priority 2009, dated 2014).)
